Data from US5929093A, “Bifunctional acetylcholinesterase reactivators” (priority 1997, dated 1999).

Biological target: T1, human red blood cell AChE (Homo sapiens, UniProt P22303)
T1 construct: human red blood cell AChE; from tissue; host or cells: human red blood cells
Assay: AChE reactivation assay with echothiophate-inhibited human red blood cell AChE
Type: biochemical
Details: for activation at 1 µM: read-out: Percentages of AChE reactivation

[1] = single concentration 10^-6 M, added for 1 hour, AChE inhibited by echothiophate 10^-7 M, means ± standard errors of 4 measurements

T1 sequence (P22303 other isoform, or with tags, fused parts or gaps): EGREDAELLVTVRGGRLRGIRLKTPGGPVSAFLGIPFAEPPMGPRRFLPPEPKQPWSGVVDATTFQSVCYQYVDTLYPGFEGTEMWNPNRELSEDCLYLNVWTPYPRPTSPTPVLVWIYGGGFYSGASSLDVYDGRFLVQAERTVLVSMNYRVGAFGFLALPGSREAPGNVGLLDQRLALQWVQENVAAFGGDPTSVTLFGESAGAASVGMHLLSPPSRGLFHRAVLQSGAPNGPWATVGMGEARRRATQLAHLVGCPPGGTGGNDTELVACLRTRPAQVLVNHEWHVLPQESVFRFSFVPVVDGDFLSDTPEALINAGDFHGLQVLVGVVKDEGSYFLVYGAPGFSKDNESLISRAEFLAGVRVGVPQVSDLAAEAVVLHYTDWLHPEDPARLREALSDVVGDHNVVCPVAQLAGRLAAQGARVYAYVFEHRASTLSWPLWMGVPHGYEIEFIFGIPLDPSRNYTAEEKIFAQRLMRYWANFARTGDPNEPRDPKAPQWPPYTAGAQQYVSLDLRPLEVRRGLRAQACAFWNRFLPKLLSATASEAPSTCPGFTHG

SMILES: ON=Cc1cc[n+](CCCCCC[n+]2ccc(C=NO)cc2)cc1 [Compound 1a, 1,6-Hexylene-bis-N,N'-4-pyridiniumaldoxime dibromide]
- activation at 1 µM [1]: 47 ± 1.8%

SMILES: ON=Cc1cc[n+](CCCCCCCC[n+]2ccc(C=NO)cc2)cc1 [Compound 1c, 1,8-Octylene-bis-N,N'-4-pyridiniumaldoxime dibromide]
- activation at 1 µM [1]: 44 ± 1.7%

SMILES: ON=Cc1cccc[n+]1CCCCCCC[n+]1ccccc1C=NO [Compound 3b, 1,7-Heptylene-bis-N,N'-2-pyridiniumaldoxime dichloride]
- activation at 1 µM [1]: 80 ± 3.7%

SMILES: ON=Cc1cc[n+](CCCCCCC[n+]2ccc(C=NO)cc2)cc1 [Compound 1b, 1,7-Heptylene-bis-N,N'-4-pyridiniumaldoxime dibromide]
- potency in reactivation relative to 2-PAM (full dose-response curves) (full dose-response curves, compared with 2-PAM): ten-fold more potent
- activation at 1 µM [1]: 61 ± 3.2%

SMILES: C[n+]1ccccc1C=NO [Compound 2-PAM, 2-pralidoxime, reference compound]
- Percentages of AChE reactivation [1]: 17 ± 2.8%
- activation at 1 µM [1]: 17%

SMILES: ON=Cc1cccc[n+]1CCCCCC[n+]1ccccc1C=NO [Compound 3a, 1,6-Hexylene-bis-N,N'-2-pyridinium aldoxime dichloride]
- activation at 1 µM [1]: 67 ± 0.8%

SMILES: ON=Cc1cccc[n+]1CCCCCCCCC[n+]1ccccc1C=NO [Compound 3d, 1,9-Nonylene-bis-N,N'-2-pyridiniumaldoxime dichloride]
- activation at 1 µM [1]: 58 ± 0.5%

SMILES: ON=Cc1cc[n+](CCCCCCCCC[n+]2ccc(C=NO)cc2)cc1 [Compound 1d, 1,9-Nonylene-bis-N,N'-4-pyridiniumaldoxime dibromide]
- activation at 1 µM [1]: 31 ± 2.3%

SMILES: ON=Cc1cccc[n+]1CCCCCCCC[n+]1ccccc1C=NO [Compound 3c, 1,8-Octylene-bis-N,N'-2-pyridiniumaldoxime dichloride]
- activation at 1 µM [1]: 69 ± 4.7%
